Assay results: patent US8618043B2, “Use of ADNF polypeptides for treating anxiety and depression” (Ramot at Tel-Aviv University, priority 2003, dated 2013)

Key:
ND-Swiss male mice = assay: Morris water maze, chronic intranasal NAP; format: in vivo, mouse; conditions: eight-month-old mice
Method: ND-Swiss male mice (8 months old; Harlan Sprague Dawley, Inc., Indianapolis, Ind.) were kept under a 12:12 hour light/dark regimen, with food and water available at all times. The mice were kept in the animal care facility of the Tel Aviv University in compliance with institutional and state guidelines.
NAP was custom synthesized by Peninsula (Bachem, Torrance, Calif., USA) or Peptide Technologies (Bethesda, Md., USA). The peptide was dissolved in a solution DD, in which each milliliter included 7.5 mg NaCl, 1.7 mg citric acid monohydrate, 3 mg disodium phosphate dihydrate and 0.2 mg benzalkonium chloride solution (50%). The peptide was administered intranasally every day, 5 days a week, 0.5 μg in 10 μl for each mouse, half the portion in each nostril. The control group received 10 μl of the inert carrier per day. The mice were treated at least 1 h prior to the daily experiment (water maze).
Mice were also subjected to two daily tests in a Morris water maze (diameter 90 cm; depth, 20 cm), as described in WO 01/092333, incorporated herein by reference. Latency to reach the hidden platform over a 90 second test period was recorded. The experiment was performed for 4-5 consecutive days. […] The platform was then removed from the maze and the time spent by the mice in the pool's quarter where the platform used to be was recorded (for 90 seconds). […]

[1] = in vivo; cited from earlier work
[2] = cited from earlier work
[3] = tested on: astrocytes from newborn rat cerebral cortex; assay: Confocal microscopy of microtubule re-organization; format: cell-based
Method: Rat cerebral cortical cells from newborn pups were prepared as before (Bassan et al., 1999). All procedures performed in these studies were conducted in accordance with the Tel Aviv University regulations and were approved by the Animal Care and Use Committee of Tel Aviv University. The use of animals was not excessive and no animal suffering occurred. In short, cerebral cortical tissue was incubated for 20 minutes at 37° C. in Hanks' balanced salt solution+15 mM HEPES, pH 7.3 containing trypsin B (Biological Industries, Beit Haemek, Israel). Dissociated cerebral cortical cells were added to the culture dish with 5% horse serum in DMEM. Cells were plated in a ratio of 1 cortex per two 75 cm^2 cell culture flasks (polystyrene, Corning, N.Y.). The medium was changed 1 day after plating. For astrocyte cultures, cells were split after 10 incubation days and plated in 24 well plates (each flask into 60 wells containing microscope cover glasses (12 mm diameter) and 250 μl medium). Cells were then incubated two additional weeks. For mixed neuroglial cultures, dissociated cerebral cortical cells were plated on a bed of astrocytes 2 weeks after the split and incubated in neuron-specific medium as before (Bassan et al., 1999; Brenneman, & Gozes, J. Clin. Invest. 97:2299-2307 (1996); based on Forsythe & Westbrook, J. Physiol. 396:515-533 (1988)). […]

Bovine MAP-rich tubulin = assay: Microtubule assembly, absorbance at 350 nm; format: biochemical; conditions: negative control peptide, concentration not given
Method: A microtubule assembly kit CytoDYNAMIX Screen 01(CDS01) was obtained from Cytoskeleton (Denver, Colo.). Bovine MAP-rich tubulin (HTS01) was resuspended in G-PEM buffer (80 mM PIPES pH 6.9, 1 mM MgCl, 1 mM EGTA and 1 mM GTP) and subjected to polymerization at 37° C. The reaction was performed in 96-well plate. Assembly was monitored with a spectrophotometer SPECTRAmax 190 (Molecular Devices, Sunnyvale, Calif.) employing continuous recording at 350 nm.

Compound | time to reach the visible platform (motor behavior) (ND-Swiss male mice) | adverse side effects in toxicology studies [1] | brain penetration ([2]; following intranasal administration) | crossing of the blood-brain barrier ([2]; radiolabeled peptides, intranasal, intravenous or intraperitoneal administration) | microtubule re-organization / microtubule-associated morphological change [3] | effect on microtubule assembly (Bovine MAP-rich tubulin)
CC[C@H](C)[C@H](NC(=O)[C@H](CO)NC(=O)[C@@H](NC(=O)[C@@H]1CCCN1C(=O)[C@H](C)NC(=O)[C@@H](N)CC(N)=O)C(C)C)C(=O)N1CCC[C@H]1C(=O)N[C@@H](CCC(N)=O)C(=O)O [NAP] | 24+7.6 | no adverse side effects | brain penetration | can cross the blood-brain barrier |  | 
VLGGGSALL [C2] |  |  |  |  | did not induce | did not affect
